The values that follow come from paper PMC12147761 (Journal of medicinal chemistry, 2025).

Assay [1] deals with phosphorylation of RNA polymerase II at Ser2. Kind of assay: Washout experiment, RNA polymerase II Ser2 phosphorylation (immunoblot). The format is cell-based, human. As to conditions: VCaP cells; YJZ5118 100 nM. Here is the method:
The previously reported reversible inhibitor 10 was included for comparison. VCaP cells were treated with the compounds for 6 h, after which the compounds were removed, and the cells were cultured in compound-free media for 5 days.
Generally, after incubation with the compounds for the indicated time, the tested cells were washed by cold PBS buffer (Gibco) and lysed with RIPA buffer (ThermoFisher Scientific) supplemented with cOmplete protease inhibitor cocktail tablets (Sigma-Aldrich). The cell lysate was treated with ultrasonic for 20s, following a centrifugation of 14000 rpm at 4°C for 10 min. The protein concentration was measured by BCA protein assay (DC Protein Assay, BIO-RAD). An equal amount of protein was loaded to 4–12% Bis-Tris gels and underwent SDS-PAGE electrophoresis at 120 V for 90 min. The proteins were transferred to a nitrocellulose (NC) membrane (Thermo Scientific) and the membranes were blocked in 5% milk buffer at room temperature for 1h, followed by incubating with primary antibody at the recommended dilution at 4°C for overnight. The membranes were washed by PBST for three times and incubated with anti-rabbit or anti-mouse HRP-conjugated secondary antibody for 1h at room temperature, after which the membranes were imaged by Odyssey CLx Imager (LiCOR Biosciences).

Assay [2] has as its system CDK13. Also noted: method as in PMID 30067358. As to conditions: LANCE Ultra assay; read-out: reported IC50 CDK13; cited from earlier work. For orientation: In TR-FRET formats the signal depends on donor and acceptor labels being close together.
Assay [3] concerns the target T1, CDK15/CycY (Homo sapiens, UniProt Q96Q40).
T1 construct: ICE Bioscience Inc. (assay service)
Put plainly: CDK family panel, ADP-Glo. Type of assay: biochemical. For orientation: In ADP-Glo the light output rises with the ADP produced.
Description: All the kinase activity were performed using an ADP-Glo kinase assay by ICE Bioscience Inc. (Beijing, China).

The test system of assay [4] is CDK12. Also noted: method as in PMID 30067358. As to conditions: LANCE Ultra assay; read-out: reported IC50 CDK12; cited from earlier work.

T1 sequence (Q96Q40 whole entry, species assumed): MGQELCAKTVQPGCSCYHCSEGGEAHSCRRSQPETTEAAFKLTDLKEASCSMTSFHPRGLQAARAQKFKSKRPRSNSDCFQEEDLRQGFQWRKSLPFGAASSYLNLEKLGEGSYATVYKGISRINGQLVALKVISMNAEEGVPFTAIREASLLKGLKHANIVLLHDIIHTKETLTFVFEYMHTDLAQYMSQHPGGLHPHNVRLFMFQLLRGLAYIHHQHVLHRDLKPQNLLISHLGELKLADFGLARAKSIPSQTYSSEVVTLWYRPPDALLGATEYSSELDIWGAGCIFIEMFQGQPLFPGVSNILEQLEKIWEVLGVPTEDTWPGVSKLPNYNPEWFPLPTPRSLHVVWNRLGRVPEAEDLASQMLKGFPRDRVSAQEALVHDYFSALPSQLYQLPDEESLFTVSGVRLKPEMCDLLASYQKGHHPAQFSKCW
T1 sequence (Q8ND76 whole entry partner, species assumed): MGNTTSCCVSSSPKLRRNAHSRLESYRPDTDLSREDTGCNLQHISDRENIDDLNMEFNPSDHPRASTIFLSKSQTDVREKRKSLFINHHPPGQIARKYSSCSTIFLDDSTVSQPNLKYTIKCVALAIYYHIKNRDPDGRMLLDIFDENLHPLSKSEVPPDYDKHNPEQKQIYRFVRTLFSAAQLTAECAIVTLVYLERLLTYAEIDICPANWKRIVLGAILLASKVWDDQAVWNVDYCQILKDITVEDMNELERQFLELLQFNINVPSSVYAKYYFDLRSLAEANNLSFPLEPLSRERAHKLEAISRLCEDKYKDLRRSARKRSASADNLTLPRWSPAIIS

`Cn1cc(-c2ccc(N(C(=O)NCc3ccccc3)[C@H]3CC[C@H](Nc4ccc(C#N)cn4)CC3)cc2)ccc1=O` [Compound 2, reference compound]: the “RNA polymerase II Ser2 phosphorylation after washout” value in assay [1] is given as “recovery of phosphorylation at 4 h after washout”. Also, the IC50 is 10 nM in assay [2], 3020 nM in assay [3] and 52 nM in assay [4].

In general, IC50 refers to the point on the concentration scale where inhibition reaches its midpoint.
